{"source": "paper PMC6704710", "about": "“Preclinical evaluation of 3D185, a novel potent inhibitor of FGFR1/2/3 and CSF-1R, in FGFR-dependent and macrophage-dominant cancer models” (Journal of Experimental & Clinical Cancer Research : CR, 2019)", "experiment_in_all_cases": "Eurofins kinase panel", "format_in_all_cases": "biochemical", "details_in_all_cases": "read-out: Inhibition rate (%)", "key": {"[1]": {"target": "T1, BrSK2(h) (Homo sapiens, UniProt Q8IWQ3)", "T1 construct": "purchased Eurofins (KinaseProfiler)", "T1 sequence (Q8IWQ3 1-736)": "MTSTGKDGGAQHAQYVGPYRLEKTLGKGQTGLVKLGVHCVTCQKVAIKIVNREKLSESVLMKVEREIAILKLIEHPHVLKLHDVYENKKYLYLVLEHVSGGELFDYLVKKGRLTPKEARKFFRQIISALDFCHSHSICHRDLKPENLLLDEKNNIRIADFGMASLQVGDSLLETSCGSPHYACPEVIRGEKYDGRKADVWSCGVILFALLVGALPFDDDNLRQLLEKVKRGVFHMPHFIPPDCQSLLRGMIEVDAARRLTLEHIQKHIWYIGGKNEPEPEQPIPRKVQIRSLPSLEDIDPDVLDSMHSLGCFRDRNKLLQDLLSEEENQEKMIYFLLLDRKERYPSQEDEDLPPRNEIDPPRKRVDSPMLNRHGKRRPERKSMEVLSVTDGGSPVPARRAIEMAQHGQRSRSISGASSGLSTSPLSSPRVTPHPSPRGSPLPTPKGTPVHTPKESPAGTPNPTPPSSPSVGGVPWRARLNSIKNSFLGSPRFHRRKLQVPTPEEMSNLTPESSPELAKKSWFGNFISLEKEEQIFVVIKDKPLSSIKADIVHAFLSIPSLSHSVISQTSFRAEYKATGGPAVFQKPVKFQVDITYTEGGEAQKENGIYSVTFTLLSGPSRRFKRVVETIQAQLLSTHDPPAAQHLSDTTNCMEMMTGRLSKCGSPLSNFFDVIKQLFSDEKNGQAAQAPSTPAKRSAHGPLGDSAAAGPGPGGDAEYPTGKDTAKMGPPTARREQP"}, "[2]": {"target": "T2, PhKγ2(h) (Homo sapiens, UniProt P15735)", "T2 construct": "purchased Eurofins (KinaseProfiler)", "T2 sequence (P15735 1-406)": "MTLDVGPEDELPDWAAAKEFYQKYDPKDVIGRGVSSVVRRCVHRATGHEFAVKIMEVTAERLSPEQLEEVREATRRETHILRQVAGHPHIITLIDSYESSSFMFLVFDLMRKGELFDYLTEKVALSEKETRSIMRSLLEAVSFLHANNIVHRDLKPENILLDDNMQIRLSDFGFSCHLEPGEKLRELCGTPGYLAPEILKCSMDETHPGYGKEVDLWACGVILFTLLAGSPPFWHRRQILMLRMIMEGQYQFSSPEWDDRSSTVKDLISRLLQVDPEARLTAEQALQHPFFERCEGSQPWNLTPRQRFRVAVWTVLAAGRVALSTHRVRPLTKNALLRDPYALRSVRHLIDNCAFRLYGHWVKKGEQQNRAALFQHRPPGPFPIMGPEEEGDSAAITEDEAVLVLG"}, "[3]": {"target": "T3, ALK2(h) (Homo sapiens, UniProt Q04771)", "T3 construct": "purchased Eurofins (KinaseProfiler)", "T3 sequence (Q04771 21-509)": "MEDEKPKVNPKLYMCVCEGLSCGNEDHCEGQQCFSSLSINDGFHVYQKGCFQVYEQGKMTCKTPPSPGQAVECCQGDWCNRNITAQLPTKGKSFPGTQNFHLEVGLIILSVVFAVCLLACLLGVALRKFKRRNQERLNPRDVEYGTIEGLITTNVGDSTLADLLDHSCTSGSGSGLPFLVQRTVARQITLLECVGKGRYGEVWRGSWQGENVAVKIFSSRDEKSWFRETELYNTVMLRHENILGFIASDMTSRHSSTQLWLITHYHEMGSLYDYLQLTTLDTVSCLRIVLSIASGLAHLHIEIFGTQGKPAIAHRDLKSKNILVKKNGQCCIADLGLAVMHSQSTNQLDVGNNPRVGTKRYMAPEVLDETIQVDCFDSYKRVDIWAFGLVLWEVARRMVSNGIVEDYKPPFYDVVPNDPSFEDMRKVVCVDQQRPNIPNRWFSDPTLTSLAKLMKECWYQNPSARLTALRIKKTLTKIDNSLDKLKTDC"}, "[4]": {"target": "T4, Mer(h) (Homo sapiens, UniProt Q12866)", "T4 construct": "purchased Eurofins (KinaseProfiler)", "T4 sequence (Q12866 21-999)": "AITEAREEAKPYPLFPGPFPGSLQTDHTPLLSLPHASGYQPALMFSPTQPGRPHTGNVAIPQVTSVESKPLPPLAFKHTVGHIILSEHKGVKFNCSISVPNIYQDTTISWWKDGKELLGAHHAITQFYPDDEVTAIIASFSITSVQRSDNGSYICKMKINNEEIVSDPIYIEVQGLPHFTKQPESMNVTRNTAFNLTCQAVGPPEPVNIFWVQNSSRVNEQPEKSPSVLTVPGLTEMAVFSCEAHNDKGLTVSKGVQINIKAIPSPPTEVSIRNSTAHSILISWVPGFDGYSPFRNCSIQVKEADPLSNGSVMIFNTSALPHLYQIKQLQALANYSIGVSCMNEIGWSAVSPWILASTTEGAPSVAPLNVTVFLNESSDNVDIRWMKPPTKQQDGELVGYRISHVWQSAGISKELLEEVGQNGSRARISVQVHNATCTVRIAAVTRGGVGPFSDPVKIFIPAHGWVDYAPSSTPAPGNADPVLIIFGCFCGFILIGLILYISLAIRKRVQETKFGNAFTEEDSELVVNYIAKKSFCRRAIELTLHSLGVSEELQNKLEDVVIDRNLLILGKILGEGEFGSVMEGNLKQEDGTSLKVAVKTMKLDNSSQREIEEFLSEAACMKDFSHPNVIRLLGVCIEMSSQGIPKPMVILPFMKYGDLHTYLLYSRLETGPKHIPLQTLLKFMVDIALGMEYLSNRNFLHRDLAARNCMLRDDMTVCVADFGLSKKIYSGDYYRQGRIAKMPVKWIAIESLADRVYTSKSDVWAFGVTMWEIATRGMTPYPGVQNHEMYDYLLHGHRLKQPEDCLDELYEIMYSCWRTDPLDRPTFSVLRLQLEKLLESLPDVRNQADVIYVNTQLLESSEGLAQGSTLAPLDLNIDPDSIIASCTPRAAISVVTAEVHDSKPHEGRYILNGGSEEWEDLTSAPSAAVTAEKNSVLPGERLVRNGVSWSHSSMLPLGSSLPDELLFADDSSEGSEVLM"}}, "data": [{"smiles": "COc1cc(OC)c(Cl)c(-c2ccc3c(NC(=O)c4ccc(N5CCNC(C)(C)C5)cc4)n[nH]c3n2)c1Cl", "note": "[3D185]", "values": [{"measurement": "inhibition at 0.01 µM", "setting": "[1]; 10 nM", "result": 8, "unit": "%"}, {"measurement": "inhibition at 0.1 µM", "setting": "[1]; 100 nM", "result": 5, "unit": "%"}, {"measurement": "inhibition at 1 µM", "setting": "[1]; 1000 nM", "result": 11, "unit": "%"}, {"measurement": "inhibition at 0.01 µM", "setting": "[2]; 10 nM", "result": 12, "unit": "%"}, {"measurement": "inhibition at 0.1 µM", "setting": "[2]; 100 nM", "result": -8, "unit": "%"}, {"measurement": "inhibition at 1 µM", "setting": "[2]; 1000 nM", "result": -3, "unit": "%"}, {"measurement": "inhibition at 0.01 µM", "setting": "[3]; 10 nM", "result": -10, "unit": "%"}, {"measurement": "inhibition at 0.1 µM", "setting": "[3]; 100 nM", "result": -15, "unit": "%"}, {"measurement": "inhibition at 1 µM", "setting": "[3]; 1000 nM", "result": -4, "unit": "%"}, {"measurement": "inhibition at 0.01 µM", "setting": "[4]; 10 nM", "result": -9, "unit": "%"}, {"measurement": "inhibition at 0.1 µM", "setting": "[4]; 100 nM", "result": -7, "unit": "%"}, {"measurement": "inhibition at 1 µM", "setting": "[4]; 1000 nM", "result": 32, "unit": "%"}]}]}
